Laboratory results published in patent US5696151A, “Compounds useful for the inhibition of the replication of HIV-1 and HIV-1 mutants” (priority 1995, dated 1997).
Converted amounts (≈) assume the structure as drawn.

Tests used:
Format in all cases: cell-based
in vitro = settings: human, cem cells, CC50 (50% cytostatic concentration), Table 2B; CEM cell proliferation; averages of 2 to 3 independent experiments
Text: (§1) CEM cells were obtained from the American Tissue Cell Culture Collection (Rockville, Md.). HIV-1(IIIB) was originally obtained from the culture supernatant of persistently HIV-1-infected H9 cells and was provided by R. C. Gallo and M. Popovic (National Cancer Institute, National Institutes of Health, Bethesda, Md.). […] 67: 5353-5359 (1993); HIV-1/Lys-138 ("Lys-138") was selected for resistance against TSAO-m^3T as described in Balzarini et al, Virology 192: 246-253 (1993) and Balzarini et al, Proc. Nat. Acad. Sci. USA 90: 6952-6956 (1993); HIV-1/181-Cys ("181-Cys") was selected for resistance against pyridinone L-697,661 as described in Balzarini et al, Virology 192: 246-253 (1993); and HIV-1/188-His ("188-His") was selected for resistance against HEPT as described in Balzarini et al, Mol. Pharmocol. 44: 694-701 (1993). 188-His was then further converted to HIV-1/188-Leu "188-Leu") upon further passage in cell culture in the absence of the HEPT.
^b 50% cytostatic concentration (i.e., compound concentration require
to inhibit CEM cell proliferation by 50%)

HIV-1(IIIB) = assay: Inhibition of HIV-1 induced syncytium formation in CEM cells, wild type; settings: Human immunodeficiency virus 1, IIIB, CCRF-CEM, 96 h, Table 2B, WT = HIV-1(IIIB), day 4, averages of 2 to 3 independent experiments, read-out: Antiviral Activity of Comparative Compounds EC50, WT
Text: as §1
(§2) CEM cells were suspended at ≈300,000 cells per ml of culture medium and infected with approximately 100 CCID50 (CCID50 being the 50% cell culture infective dose) of HIV-1(IIIB) or one of the HIV-1 RT mutant strains described above. Then 100 μl of the infected cell suspensions was added to 200 μl microtiter plate wells containing 100 μl of appropriate serial (5-fold) dilutions of the test compounds. The inhibitory effect of the test compounds on HIV-1 induced syncytium formation in CEM cells was examined microscopically on day 4 post infection.

HIV-1/181-Cys = assay: Inhibition of HIV-1 induced syncytium formation in CEM cells, RT mutant 181-Cys; settings: Human immunodeficiency virus 1, CCRF-CEM, 96 h, Table 2B, day 4, averages of 2 to 3 independent experiments, read-out: Antiviral Activity of Comparative Compounds EC50, 181-Cys
Text: as §1, §2

HIV-1/100-Ile = assay: Inhibition of HIV-1 induced syncytium formation in CEM cells, RT mutant 100-Ile; settings: Human immunodeficiency virus 1, CCRF-CEM, 96 h, Table 2B, day 4, averages of 2 to 3 independent experiments, read-out: Antiviral Activity of Comparative Compounds EC50, 100-Ile
Text: as §1, §2

HIV-1/106-Ala = assay: Inhibition of HIV-1 induced syncytium formation in CEM cells, RT mutant 106-Ala; settings: Human immunodeficiency virus 1, CCRF-CEM, 96 h, Table 2B, day 4, averages of 2 to 3 independent experiments, read-out: Antiviral Activity of Comparative Compounds EC50, 106-Ala
Text: as §1, §2

HIV-1/Lys-138 = assay: Inhibition of HIV-1 induced syncytium formation in CEM cells, RT mutant 138-Lys; settings: Human immunodeficiency virus 1, CCRF-CEM, 96 h, Table 2B, day 4, averages of 2 to 3 independent experiments, read-out: Antiviral Activity of Comparative Compounds EC50, 138-Lys
Text: as §1, §2

Compound	CC50 (in vitro) [µg/mL]	EC50 (HIV-1(IIIB)) [µg/mL]	EC50 (HIV-1/181-Cys) [µg/mL]	EC50 (HIV-1/100-Ile) [µg/mL]	EC50 (HIV-1/106-Ala) [µg/mL]	EC50 (HIV-1/Lys-138) [µg/mL]
Cc1occc1C(=O)Nc1ccc(Cl)c(C(=O)OC(C)C2CC2)c1 (stereo not drawn) [Compound 54]	44 (≈ 127 µM)	0.6 (≈ 1.73 µM)	1 (≈ 2.88 µM)	> 10	5 (≈ 14.4 µM)	> 10
COc1ccccc1C(=O)Nc1ccc(Cl)c(C(=O)OC2CCCC2)c1 [Compound 68]	> 100	0.45 (≈ 1.2 µM)	8.5 (≈ 22.7 µM)	5 (≈ 13.4 µM)	8.5 (≈ 22.7 µM)	5.5 (≈ 14.7 µM)
CC(C)C(OC(=O)c1cc(NC(=S)c2ccccc2F)ccc1Cl)C(C)C [Compound 98]	7.5 (≈ 18.4 µM)	0.06 (≈ 0.147 µM)	> 1	> 1	0.85 (≈ 2.08 µM)	0.7 (≈ 1.72 µM)
Cc1ccsc1C(=S)Nc1ccc(Cl)c(C(=O)OC(C)C)c1 [Compound 88]	5.2 (≈ 14.7 µM)	0.01 (≈ 0.0283 µM)	0.27 (≈ 0.763 µM)	0.7 (≈ 1.98 µM)	0.6 (≈ 1.7 µM)	0.3 (≈ 0.848 µM)
Cc1ccsc1C(=S)Nc1ccc(Cl)c(C=NOC(C)C)c1 [Compound 95]	13 (≈ 36.8 µM)	0.008 (≈ 0.0227 µM)	0.5 (≈ 1.42 µM)	0.65 (≈ 1.84 µM)	0.08 (≈ 0.227 µM)	0.16 (≈ 0.453 µM)
C=CCOc1cc(NC(=S)c2ccoc2C)ccc1OC [Compound 73]	> 100	0.017 (≈ 0.056 µM)	0.85 (≈ 2.8 µM)	2.9 (≈ 9.56 µM)	0.8 (≈ 2.64 µM)	0.09 (≈ 0.297 µM)
CON=Cc1cc(NC(=S)c2ccoc2C)ccc1Cl [Compound 72]	24 (≈ 77.7 µM)	0.03 (≈ 0.0972 µM)	1.6 (≈ 5.18 µM)	2.3 (≈ 7.45 µM)	0.5 (≈ 1.62 µM)	0.085 (≈ 0.275 µM)
CCOC(=O)CSc1cc(NC(=S)c2ccoc2C)ccc1Cl [Compound 116]	≥ 100	0.085 (≈ 0.23 µM)	2 (≈ 5.41 µM)	1.8 (≈ 4.87 µM)	5.5 (≈ 14.9 µM)	0.6 (≈ 1.62 µM)
Cc1ccccc1C(=O)Nc1ccc(Cl)c(C(=O)OC2CCCCC2)c1 [Compound 70]	5.2 (≈ 14 µM)	0.19 (≈ 0.511 µM)	2.5 (≈ 6.72 µM)	2.5 (≈ 6.72 µM)	6.5 (≈ 17.5 µM)	5.5 (≈ 14.8 µM)
Cc1ccccc1C(=S)Nc1ccc(Cl)c(C(=O)OC2CCCCC2)c1 [Compound 71]	4 (≈ 10.3 µM)	0.049 (≈ 0.126 µM)	1.6 (≈ 4.12 µM)	0.6 (≈ 1.55 µM)	3 (≈ 7.73 µM)	3 (≈ 7.73 µM)
CC(C)ON=Cc1cc(NC(=S)c2ccccc2)ccc1Cl [Compound 96]	9 (≈ 27 µM)	0.05 (≈ 0.15 µM)	> 1	> 1	0.75 (≈ 2.25 µM)	0.17 (≈ 0.511 µM)
C=C(C)COC(=O)c1cc(NC(=S)c2ccoc2C)ccc1Cl [Compound 51]	6.7 (≈ 19.2 µM)	0.006 (≈ 0.0172 µM)	0.1 (≈ 0.286 µM)	0.8 (≈ 2.29 µM)	0.03 (≈ 0.0858 µM)	0.03 (≈ 0.0858 µM)
CCC(CC)OC(=O)c1cc(NC(=O)c2ccccc2N)ccc1Cl [Compound 66]	25 (≈ 69.3 µM)	0.6 (≈ 1.66 µM)	≥ 10	> 10	9 (≈ 24.9 µM)	> 10
Cc1occc1C(=S)Nc1ccc(Cl)c(C(=O)OC2CCCCC2)c1 [Compound 83]	9.7 (≈ 25.7 µM)	0.004 (≈ 0.0106 µM)	0.07 (≈ 0.185 µM)	0.17 (≈ 0.45 µM)	0.057 (≈ 0.151 µM)	0.035 (≈ 0.0926 µM)
Cc1sccc1C(=O)Nc1ccc(Cl)c(C=NOC(C)(C)C)c1 [Compound 60]	14 (≈ 39.9 µM)	0.23 (≈ 0.656 µM)	3 (≈ 8.55 µM)	4.5 (≈ 12.8 µM)	1.6 (≈ 4.56 µM)	1.57 (≈ 4.47 µM)
C=CCOc1cc(NC(=S)c2sccc2C)ccc1C#N [Compound 77]	3.6 (≈ 11.4 µM)	0.045 (≈ 0.143 µM)	> 1	≥ 1	≥ 1	0.55 (≈ 1.75 µM)
